In patent US20070037887A1, “Blockade of mtor to prevent a hormonal adaptive response” (University of Virginia Patent Foundation, priority 2003, published 2007):

Assays:
[1] = tested on: ERK1/2 MAP kinase, Akt, p70 S6 kinase, PHAS-I phosphorylation in LTED cells; test: Western analysis of serum-stimulated kinase phosphorylation, LTED cells; type: cell-based, human
Protocol: FIGS. 7A-7D represent data showing the effect of FTS on serum-stimulated activation of MAP kinase, PI3 kinase, and mTOR. Subconfluent MCF-7 and LTED cells grown in 60 mm dishes were treated with FTS in their culture media for 24 h. Cells were then harvested and cell lysate prepared. Phosphorylation of ERK1/2 MAP kinase (FIG. 7A), Akt at Ser^473 (FIG. 7B), p70 S6 kinase at Thr^389 (FIG. 7C), and PHAS-I at Ser^65 (FIG. 7D) was detected by Western analysis using specific antibodies and quantitated by densitometry scanning.
FIGS. 10A-10D represent data showing the effect of FTS on serum- and growth factor-induced phosphorylation of p70 S6 kinase at Thr^229 in LTED cells (FIG. 10A). Comparison of FTS and LY 294002 (LY) on Thr^229 phosphorylation of p70 S6K induced by EGF (FIG. 10B; by same treatment as described in FIG. 8). Comparison of FTS and LY 294002 on […] phosphorylation of p70 S6K induced by IGF-1 (FIG. 10C; by same treatment as described in FIG. 8). FIG. 10D is graph displaying the time course of FTS (100 μM) effects on Thr^389 and Thr^229 phosphorylation of p70 S6K in LTED cells cultured in serum containing IMEM.
The levels of phosphorylated ERK1/2 MAPK, Akt (Ser^473), p70S6K (Thr^389) and PHAS-1 (Ser^65) were consistently elevated in LTED cells compared to those in wild type MCF-7 cells as indicated by Western blot analysis using specific antibodies against phosphorylated ERK 1/2 (FIG. 7A), Akt (FIG. 7B), p70S6 kinase (FIG. 7C) and PHAS-1 (FIG. 7D). […] (FIGS. 7C & 7D).
In contrast, LY294002 blocked growth factor induced Thr^229 phosphorylation in a dose- and time-dependent manner (FIGS. 10A and 10B). […] Therefore, FTS's effect on MTOR activity was investigated.

[2] = tested on: T1, mTOR-raptor complex; test: Coimmunoprecipitation of raptor with mTOR, compound added to cell extracts or immune complexes; type: binding; conditions: extracts of nontransfected cells
T1 construct: rows headed: amount of endogenous raptor that coimmunoprecipitated with mTOR; other: extracts of nontransfected cells
Protocol: 293T cells were transfected with pcDNA3 alone (Vec.) or with a combination of pcDNA3AU1-mTOR, pcDNA33HA-Raptor, and pcDNA33HA-mLST8. Extracts of the cells were incubated with increasing concentrations of FTS before AU1-mTOR was immunoprecipated. Samples of the immune complexes were incubated with [γ-^32P]ATP and recombinant [His^6]PHAS-I, then subjected to SDS-PAGE and transferred to an immobilon membrane. After obtaining a phosphorimage of the membrane to detect ^32P-PHAS-I, the membrane was immunoblotted with PThr^36/45 antibodies. Other samples of the immune complexes were subjected to SDS-PAGE and immunoblots were prepared with antibodies to the HA epitope or to mTOR (see FIG. 13A). Extracts of nontransfected 293T cells were incubated with increasing concentrations of FTS before mTOR was immunoprecipated with mTAb1. A control immunoprecipitation was conducted using nonimmune IgG (NI). Immune complexes were subjected to SDS-PAGE and immunoblots were prepared with antibodies to mLST8, mTOR, and raptor.
Samples of extracts from 293T cells overexpressing AU1-mTOR, HA-raptor, and HA-mLST8 were incubated for 1 h with increasing concentrations of FTS (●, ▴, ▪) or GTS (∘, Δ, □) before immunoprecipitations were conducted with anti-AU1 antibodies. mTOR kinase activity (●, ∘) was determined by measuring ^32P incorporation into [His^6]PHAS-I in immune complex kinases assays performed with [γ-^32P]ATP (see FIG. 14A). The relative amounts of HA-raptor (▴, Δ) and HA-mLST8 (▪, □) that coimmunoprecipitated with AU1-mTOR were determined after immunoblotting with anti-HA antibodies (see FIG. 14B). The results (mean values+S.E. from 5 experiments) are expressed as percentages of the mTOR activity (FIG. 14A) or coimmunoprecipitating proteins (FIG. 14B) from samples incubated without FTS or GTS, and have been corrected for the amounts of AU1-mTOR immunoprecipitated.
293T cells were transfected with pcDNA3 alone (Vec.) or with a combination of pcDNA3AU1-mTOR, pcDNA33HARaptor, and pcDNA33HA-mLST8. AU1-mTOR was immunoprecipitated and samples of the washed immune complexes were at incubated […] for 30 min with no inhibitors or with the following: caffeine (1 mM), FTS (50 μM), LY294002 (10 μM), rapamycin (1 μM) plus FKBP12 (10 μM), and 1 μM wortmannin. To prevent destruction of wortmannin, incubations were conducted in the absence of thiol reducing agents. Samples of the immune complexes were incubated for 10 min with 10 mM MnCl2, 1 mM [γ-^32P]ATP, and 50 μg/ml [His^6]PHAS-I to assess mTOR activity. Other samples were rinsed twice, subjected to SDS-PAGE, and immunoblotted with anti-HA and anti-AU1 antibodies to determine the amounts of HA-raptor and HA-mLST8 associated with AU1-mTOR. The relative amounts of ^32P incorporated into PHAS-I were determined by phosphorimaging (see FIG. 15B).

[3] = tested on: LTED cells; test: [3H] thymidine incorporation into DNA, LTED cells; type: cell-based, human; conditions: FTS 75 μM, 18 hours
Protocol: FIGS. 5A & 5B represent the effect of FTS on DNA synthesis in MCF-7 (FIG. 5A) and LTED (FIG. 5B) cells. One hundred thousand cells were plated into each well of 24-well plates. Two days later, the cells were re-fed with IMEM containing 5% DCC-FBS. After another two days, cells were treated in quadruplicate with the compounds indicated for 18 hours. [^3H] thymidine (1 μCi/well) was added during the last 2 h of incubation. [^3H] thymidine incorporated into DNA was normalized by protein content.
The inhibitory effect of FTS on cell growth may be the result of inhibition of cellular proliferation, induction of apoptosis, or both. To determine the mechanism by which FTS inhibits cell growth, FTS's effect on DNA synthesis and apoptosis was investigated. […] Estradiol (10^−10 M) increased [^3H] thymidine incorporation by 2.6 fold compared to the control level in MCF-7 cells.

[4] = FTS 100 μM, serum containing medium

## CC(C)=CCC/C(C)=C/CC/C(C)=C/CSc1ccccc1C(=O)O [FTS, farnesylthiosalicylic acid]
[1]; [4]
  time at which inhibition of Thr389 phosphorylation maximized: 24 h
  time at which inhibition of Thr389 phosphorylation occurred: 2 h
[1]; FTS 100 μM, serum containing medium, time course
  Thr229 phosphorylation of p70 S6K: only slightly reduced
[1]; FTS 24 h in culture media
  phosphorylation of ERK1/2 MAPK, Akt (Ser473), p70S6K (Thr389) and PHAS-1 (Ser65): dose-dependently inhibited
[2]
  amount of endogenous raptor that coimmunoprecipitated with mTOR: decreased
[3]
  [3H] thymidine incorporated into DNA: significantly reduced
